Data set [1] has as its system T. gondii tachyzoites. Description: Transmission electron microscopy of tachyzoite internal structure. The following applies: 10 μM peptide, 2 h; Fig. 5. It is filed as cell-based, Toxoplasma gondii. How it is done: TEM steps mainly include fixing, rinsing, dehydration, infiltration, embedding, etc. After the T. gondii samples were fixed in 4% glutaraldehyde, they were washed with a cacodylate buffer, and 1% osmium tetroxide was used to fix the sample at 4 ℃ for 2 h. The fixed samples were then washed and subjected to a series of gradient dewatering treatments before being embedded in epoxy resin and polymerized at 60 ℃. After polymerization, the sample was sliced and double stained. Finally, the internal structure of T. gondii tachyzoites treated with different polypeptides was observed by TEM (Tecnai G2 Spirit TWIN, USA).

The subject of data set [2] is T. gondii tachyzoites. Put plainly: Trypan blue staining (exclusion) assay, killing of tachyzoites. The data set is classed as cell-based, Toxoplasma gondii. The conditions noted are these: 10 μM peptide, 2 h incubation with T. gondii, optical microscope, Fig. 2A. How it is done: When T. gondii died, trypan blue was able to cross its cell membrane and enter the interior, making it blue. Trypan blue exclusion test was undertaken as mentioned before. Firstly, 10 μM different XYP1-derived peptides were prepared, incubated with T. gondii for 2 h, and then the trypan blue dye was added. After 3–5 min, the survival rate of T. gondii was observed by optical microscope and the mortality rate was calculated.

The nature of the next data set: CCK-8 cytotoxicity assay. It is filed as cell-based. The conditions noted are these: human; CCK-8, HFFs, 24 h with peptide then 2 h with CCK-8, OD540; Fig. 3C. As for the experimental part: […] After 24 h, 10 μL CCK-8 solution (APExBIO, USA) was added and incubated for another 2 h. The OD540 value was then measured and the cell mortality was calculated.
Data set [3] relates to T. gondii RH strain tachyzoites. Description: Mouse survival assay after T. gondii RH infection. The data set is classed as in vivo. The following applies: mice i.p. 1000 RH strain tachyzoites; for effect on survival time of infected mice (in words): peptide after 4 h, 4 mg/kg, Fig. 3E; for survival of infected mice prolonged to: peptide injected after 4 h, 4 mg/kg (legend; method says 4 mg/mL), control group all died at 127.1 h. As for the experimental part:
The anti-T. gondii effect of peptides in vivo was investigated through a mouse survival experiment. The experiment was divided into a PBS control group and different polypeptide groups. Each group of mice was intraperitoneally injected with 1000 RH strain tachyzoites. After 4 h, the pre-prepared 4 mg/mL peptides were injected into the mice. The survival time of mice in each group was recorded and analyzed statistically.

Data set [4] has as its system tachyzoites of RH-GFP-TgAtg8 T. gondii strain. Put plainly: Fluorescence microscopy killing assay with RH-GFP-TgAtg8 tachyzoites. The following applies: for fluorescence area and intensity of RH-GFP-TgAtg8 tachyzoites vs control: 10 μM peptide, 2 h incubation, fluorescence microscopy, Fig. 2C, D; for concentration dependence of killing effect (fluorescence area and intensity): 5 μM, 10 μM, 20 μM, room temperature, 2 h, Fig. 3A, B. The data set is classed as cell-based, Toxoplasma gondii. As for the experimental part:
To explore the concentration dependence of the polypeptides against T. gondii, XYP1-derived peptide solutions with different concentration gradients (5 μM, 10 μM, 20 μM) were prepared and then mixed with T. gondii tachyzoites at room temperature. After incubation for 2 h, the anti-T. gondii effect was observed by fluorescence microscopy.

A further data set concerns human red blood cells. Put plainly: Hemolysis assay. The following applies: 1% human red blood cells in PBS, 37 ℃, 30 min, OD540. It is filed as cell-based. As for the experimental part:
The hemolytic activity of peptides was determined by the amount of hemoglobin released from lysed human red blood cells. Normal human blood was mixed 1:1 with Aldrin’s fluid, followed by centrifuging, and phosphate buffered saline (PBS) was added to make 1% red blood cell resuspension. The 50 μL resuspension was mixed with 50 μL PBS, 1% Triton X-100, 70% DMSO (Sigma, USA), and different concentrations of polypeptides, then incubated at 37 ℃ for 30 min. After centrifugation, the OD540 value of the supernatant was measured by Microplate reader (Agilent, USA) and the hemolysis rate was calculated.

Another data set deals with NF-kB. Put plainly: qRT-PCR of NF-kB transcription. The data set is classed as cell-based, human. The conditions noted are these: qPCR, XYP1 treatment group vs control; Fig. 7H. As for the experimental part: (§1) The control group consisted of HFF cells infected with T. gondii without XYP1, and the experimental group was treated with XYP1 for 8 h. Total RNAs were extracted from the control and experimental groups and reverse to cDNA, with three replicates per group. After the steps of end repair, A-tailing, and adapter ligation, the samples were proceeded with polymerase chain reaction (PCR) amplification and Illumina transcriptome sequencing in the OE biotech Co., Ltd. (Shanghai, China). Trimmomatic software was used to filter the raw data to obtain high-quality data information. Subsequently, the filtered data was aligned and assembled using HISAT2 [30] and StringTie tool. The number of reads mapped to each gene in each sample was calculated.
(§2) The total RNAs from different samples were extracted using the classical Trizol method. The PerfectStart Uni RT&qPCR Kit (TransGen Biotech, China) was used to efficiently reverse transcribe RNA into cDNA and synthesize the first strand. The qRT-PCR reaction system contains cDNA temple, forward and reverse primers, double stranded DNA fluorescent dye (SYBR Green I), DNA polymerase, dNTP and buffer. The PCR reaction was performed using a two-step amplification procedure: 94 ℃ for 30 s (pre-denaturation) followed by 40 cycles of 94 ℃ for 5 s and 60 ℃ for 30 s. Finally, the relative expression of each gene was calculated by 2^−∆∆Cq method.
For orientation: In qPCR the cycle at which signal appears reflects the starting amount.

In the next data set the test system is TP53. Put plainly: qRT-PCR of TP53 transcription. The conditions noted are these: qPCR, XYP1 treatment group vs control; Fig. 7G. The data set is classed as cell-based, human. As for the experimental part:
as §1, §2

The subject of another data set is IL-17. Put plainly: qRT-PCR of IL-17 transcription. The data set is classed as cell-based, human. The following applies: qPCR, XYP1 treatment group vs control; Fig. 7F. As for the experimental part: as §1, §2
The subject of data set [5] is T. gondii tachyzoites. The following applies: 10 μM XYP1; previous study; cited from earlier work. How it is done: Therefore, trypan blue staining assay was used to compare the killing activity in vitro of 10 μM different derived peptides and XYP1.

These results are taken from paper PMC11373213, “Anti-Toxoplasma gondii effects of XYP1-derived peptides and regulatory mechanisms of XYP1” (Parasites & Vectors, 2024).

As usually defined, the IC50 is the midpoint of a concentration-inhibition curve.

Each structure is given as a SMILES string. Peptide text beside a SMILES is read from it.

For `CC[C@H](C)[C@H](NC(=O)[C@H](CCCCN)NC(=O)[C@H](CCCCN)NC(=O)[C@H](C)NC(=O)[C@@H](NC(=O)[C@H](CCCCN)NC(=O)[C@H](CCCCN)NC(=O)[C@H](CCSC)NC(=O)[C@H](CCCCN)NC(=O)[C@H](CCCCN)NC(=O)[C@H](Cc1ccccc1)NC(=O)[C@H](Cc1c[nH]c2ccccc12)NC(=O)[C@H](CCCCN)NC(=O)[C@H](CCCCN)NC(=O)[C@@H](N)CC(C)C)[C@@H](C)CC)C(=O)N[C@@H](C)C(=O)N[C@@H](CCCCN)C(=O)N[C@@H](CC(C)C)C(=O)O` [XYP1-18-1] (H-LKKWFKKMKKIAKKIAKL-OH; N-terminus and C-terminus assumed), the “damage of internal structure of tachyzoites (TEM)” value (“damage” for short) in the data set on T. gondii tachyzoites [1] was “shrinkage and vacuolization, but also complete dissolution of the tachyzoites observed”. Further, the “anti-T. gondii killing activity (toxoplasma mortality, trypan blue)” value (“anti-T. gondii killing activity” for short) in the data set with T. gondii tachyzoites [2] is “good anti-T. gondii activity”. This molecule came in with an IC50 at 24 h in “CCK-8 cytotoxicity assay” of 45.6 µM. Besides, in [3], the “effect on survival time of infected mice (in words)” value is given as “poor effect on prolonging the survival time of mice” and the “survival of infected mice prolonged to” value was determined as 145 h. Besides, in [4], the “fluorescence area and intensity of RH-GFP-TgAtg8 tachyzoites vs control” value is “significantly reduced compared with the control group”.

For `CC[C@H](C)[C@H](NC(=O)[C@H](Cc1ccccc1)NC(=O)[C@H](CCCCN)NC(=O)[C@H](C)NC(=O)[C@@H](NC(=O)[C@H](CO)NC(=O)[C@H](CCCCN)NC(=O)[C@H](CCSC)NC(=O)[C@H](C)NC(=O)[C@H](CCCCN)NC(=O)[C@H](Cc1ccccc1)NC(=O)[C@H](Cc1c[nH]c2ccccc12)NC(=O)[C@H](CCCCN)NC(=O)[C@@H](NC(=O)[C@@H](N)CCCCN)[C@@H](C)CC)[C@@H](C)CC)C(=O)N[C@@H](C)C(=O)N[C@@H](CCCCN)C(=O)N[C@@H](CC(=O)O)C(=O)O` [XYP1-18] (H-KIKWFKAMKSIAKFIAKD-OH; N-terminus and C-terminus assumed), the “damage” value with T. gondii tachyzoites [1] was “severe deformation and rupture of the surface membrane, but also serious shrinkage and vacuolization internally”. The “anti-T. gondii killing activity” value with T. gondii tachyzoites [2] was “comparable to XYP1”. In “CCK-8 cytotoxicity assay”, this molecule had a 50% inhibitory concentration (IC50) at 24 h of 80.6 µM. In data set [3], the “effect on survival time of infected mice (in words)” value is “no significant difference between XYP1-18 and XYP1”; the “survival of infected mice prolonged to” value was 191 h. Further, in data set [4], the “concentration dependence of killing effect (fluorescence area and intensity)” value is “statistically different”; the “fluorescence area and intensity of RH-GFP-TgAtg8 tachyzoites vs control” value was “significantly reduced compared with the control group”. Besides, the “hemolysis at 1.25 μM to 80 μM” value in the data set on human red blood cells (1.25 μM to 80 μM) was “almost no hemolysis”. In the data set with human red blood cells (160 μM), the “hemolysis at the highest concentration (160 μM)” value is reported as “only minor hemolysis”.

On to `CC[C@H](C)[C@H](NC(=O)[C@H](Cc1ccccc1)NC(=O)[C@H](CCCCN)NC(=O)[C@H](C)NC(=O)[C@@H](NC(=O)[C@H](CO)NC(=O)[C@H](CCCCN)NC(=O)[C@H](CCSC)NC(=O)[C@H](C)NC(=O)[C@H](CCCCN)NC(=O)[C@H](Cc1ccccc1)NC(=O)[C@H](Cc1c[nH]c2ccccc12)NC(=O)[C@H](CCCCN)NC(=O)[C@@H](NC(=O)[C@@H](N)CCCCN)[C@@H](C)CC)[C@@H](C)CC)C(=O)N[C@@H](C)C(=O)N[C@@H](CCCCN)C(=O)N[C@@H](CC(=O)O)C(=O)N[C@@H](CCC(N)=O)C(=O)N[C@@H](CC(C)C)C(=O)N[C@@H](CCCCN)C(=O)N[C@@H](CCCCN)C(=O)N[C@@H](Cc1c[nH]cn1)C(=O)N[C@@H](CC(C)C)C(=O)O` [XYP1] (H-KIKWFKAMKSIAKFIAKDQLKKHL-OH; N-terminus and C-terminus assumed), for which the “damage” value with T. gondii tachyzoites [1] is reported as “ruptures in the surface membrane, but also different degrees of vacuolization internally”. For the same molecule, the “transcription level of NF-kB” value in the data set on NF-kB is “up-regulated”. Besides, the “anti-T. gondii killing activity” value in the data set on T. gondii tachyzoites [2] is on record as “consistent with the previous findings”. The molecule further returned an IC50 at 24 h in the data set “CCK-8 cytotoxicity assay” of 33.6 µM. Besides, the “survival of infected mice prolonged to” value in data set [3] is reported as 208.5 h. Besides, the “transcription level of TP53” value in the data set with TP53 was “down-regulated”. Further, in data set [4], the “concentration dependence of killing effect (fluorescence area and intensity)” value is on record as “statistically different”. The “hemolysis at 1.25 μM to 10 μM” value in the data set with human red blood cells (1.25 μM to 10 μM) was “almost no hemolysis reaction was observed”. Besides, in the data set on IL-17, the “transcription level of IL-17” value is recorded as “down-regulated”. Moreover, the “killing of T. gondii tachyzoites” value in the data set on T. gondii tachyzoites [5] was “can kill T. gondii tachyzoites”.
